Assay results: article PMC9769694, “Discovery of Two Inhibitors of the Type IV Pilus Assembly ATPase PilB as Potential Antivirulence Compounds” (Microbiology Spectrum, 2022)

Columns and labels:
Settings in all cases: data not shown
[1] = tested on: A. nosocomialis twitching motility; assay: Twitching motility, crystal violet stained twitching area; format: cell-based, Acinetobacter nosocomialis
Source text: The inhibitors may thus interact with conserved features of the PilB ATPase family. A. nosocomialis PilB ([19]), whose N terminus is not similar to the MshEN domain (data not shown), shares ~53% identity and ~74% homology with MxPilB and MC3PilB in the ATPase domain (Fig. S1). We analyzed whether benserazide and levodopa could impact the T4P-powered twitching motility ([19], [44]) of A. nosocomialis (Fig. 7), an opportunistic pathogen in the Acinetobacter calcoaceticus-Acinetobacter baumannii (ACB) complex ([45]). As shown in Fig. 7A and B and Fig. S7, benserazide and levodopa impede the twitching motility of WT A. nosocomialis in a concentration-dependent manner.
FIG 7 Benserazide and levodopa inhibit Acinetobacter nosocomialis twitching motility and biofilm formation. (A and B) Twitching motility is correlated with the twitching area (cm^2) of the A. nosocomialis wild-type (WT) strain in the presence of (A) benserazide or (B) levodopa, with the control (no inhibitor) normalized to 1. Data are from 3 independent experiments, each performed in triplicates and represented by dots of the same color. (C and D) Biofilms formed by A. nosocomialis with (C) benserazide or (D) levodopa were analyzed by a microplate assay with crystal violet (CV) staining. Results from three independent experiments, each performed in quadruplicates and represented by dots of the same color, are shown. Horizontal lines indicate overall averages, and asterisks (*) signify that values at the indicated concentration are statistically different from those of the control (P < 0.05).
The A. nosocomialis wild-type M2 strain and an isogenic pilA deletion (ΔpilA) mutant ([19], [46]) were used in this study. They were grown and maintained using MacConkey medium at 37°C. The twitching motility of the M2 strain of A. nosocomialis was analyzed with 1% crystal violet (CV) for staining, and twitching areas were used as measures of motility as previously described ([46]). These motility assays were conducted in triplicates and the stained area of the ΔpilA mutant was subtracted from that of the WT for data analysis. A. nosocomialis biofilm formation was analyzed using microplates and CV staining as previously described ([53], [54]). The biofilm assays were conducted in quadruplicate in MacConkey medium with tissue culture-treated microtiter plates (Falcon). CV absorbance (Acv) was measured at 590 nm using Infinite M200 PRO in clear polystyrene 96-well microplates (ExtraGene). Absorbance for each well was read 16 times using Multiple Reads with the average as the final Acv value. Readings from control wells without bacteria were subtracted for normalization. Statistical differences were determined using a Student’s t test.

M. xanthus S motility = assay: T4P-mediated social (S) motility, colony expansion on soft agar; format: cell-based, Myxococcus xanthus
Source text: Benserazide and levodopa were examined to determine whether they could impact the T4P assembly function of PilB in vivo using M. xanthus as the model bacterium ([28]). […] Three M. xanthus strains were used for these experiments. Strain DK10416 lacks S motility because it is a pilB deletion (ΔpilB) mutant ([40]). The other two strains both assemble T4P and are proficient in S motility ([30]). Strain YZ1674 produces the wild-type (WT) M. xanthus PilB (MxPilB). YZ2232 expresses MC3PilB, a PilB chimera with the N terminus of MxPilB fused to the C-terminal ATPase domain of CtPilB ([30]). The PilB ATPase domains of MxPilB and MC3PilB are highly similar, with 66% shared identity and 77% similarity (Fig. S1).
FIG 5 Benserazide and levodopa inhibit T4P-mediated social (S) motility in Myxococcus xanthus. Expansion rates (cm/day) of the MxPilB (YZ1674) and the MC3PilB (YZ2232) strains on soft agar plates by S motility in the presence of (A and C) benserazide and (B and D) levodopa after 5 days of incubation. Results from three independent experiments are shown, each performed in quintuplicates with data points represented by dots of the same color. Horizontal black lines represent overall averages. Expansion rates were normalized by subtracting that of the ΔpilB strain, which has no S motility (also see Fig. S4). Asterisks (*) indicate that the values at the indicated concentrations are statistically different (P < 0.05) from those of the no-inhibitor control.
M. xanthus was grown and maintained at 32°C in Casitone-yeast extract (CYE) medium ([49]). Motility assays were conducted with strains DK10416 (ΔpilB) ([40]), YZ1674 (ΔpilB att::MxpilB) ([50]), and YZ2232 (ΔpilB att::MC3pilB) ([30], [51]) as previously described ([28]). One modification was that 10% India ink was included in the cell suspension to mark the initial spot on agar plates. All experiments were conducted in quintuplicates and the diameter of the initial spot, as marked by India ink, was subtracted for data analysis.

CtPilB = CtPilB (Chloracidobacterium thermophilum, UniProt G2LDI3); assay: Malachite green ATPase assay, dose response (benchtop); format: biochemical
Sequence of CtPilB (G2LDI3 entry or part of it): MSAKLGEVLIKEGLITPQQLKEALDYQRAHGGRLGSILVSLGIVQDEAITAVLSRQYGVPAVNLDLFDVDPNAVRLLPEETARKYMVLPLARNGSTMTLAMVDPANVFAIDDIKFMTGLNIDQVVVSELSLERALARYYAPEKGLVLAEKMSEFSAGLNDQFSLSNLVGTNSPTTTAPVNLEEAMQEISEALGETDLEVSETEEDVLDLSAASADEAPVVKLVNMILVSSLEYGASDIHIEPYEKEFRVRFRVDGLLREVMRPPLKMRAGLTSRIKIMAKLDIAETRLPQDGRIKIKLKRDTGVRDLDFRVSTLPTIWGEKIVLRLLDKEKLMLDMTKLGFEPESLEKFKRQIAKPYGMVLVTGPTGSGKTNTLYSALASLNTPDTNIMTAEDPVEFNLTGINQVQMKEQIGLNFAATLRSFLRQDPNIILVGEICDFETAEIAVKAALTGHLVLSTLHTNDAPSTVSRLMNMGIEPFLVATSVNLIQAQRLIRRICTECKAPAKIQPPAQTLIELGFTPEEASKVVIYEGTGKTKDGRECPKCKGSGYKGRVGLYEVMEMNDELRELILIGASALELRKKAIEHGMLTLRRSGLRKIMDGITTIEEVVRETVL
Method: The full-length CtPilB and the CtPilBΔN variant (with the first 139 residues at the N terminus truncated) were purified as preciously described ([29]). The HTS was conducted using 384-well microplates (Greiner, cat no. 781101). Each microwell for the screen contained a 15-μL reaction mixture consisting of 75 nM CtPilB, 0.5 mM ATP, 20 μM of a library compound, and 2% DMSO in activity buffer (50 mM N-tris(hydroxymethyl)methyl-3-aminopropanesulfonic acid [TAPS], 50 mM Tris, 75 mM KCl, 50 mM sodium acetate, 5 mM MgCl2, 50 mM ZnCl2 [pH 8.7]) ([29]). Reaction mixtures were incubated at 55°C for 10 min and transferred to ice for 5 min to stop the enzymatic reaction. MG reagent (50 μL) was added to each well for color development. After a 15-minute incubation, 5 μL of 34% (wt/vol) sodium-citrate (MP Chemicals) was added and the plate was mixed by shaking ([28], [29]). Absorbance at 620 nm (A620) was measured using a SpectraMax M5 microplate reader at room temperature. The HTS was performed at the Virginia Tech Center for Drug Discovery (VTCDD) Screening Laboratory.
The effects of inhibitors on the ATPase activity of CtPilB and CtPilBΔN and the binding of MANT-ATP were determined as described previously ([28], [29]). Stock solutions were prepared by dissolving benserazide hydrochloride (Alfa Aesar) or levodopa (Spectrum Chemical Mfg. Corp.) in dimethyl sulfoxide (DMSO; Fisher Biotech). Next, 10× working stocks for given concentrations of an inhibitor were freshly prepared before their use in an experiment. GraphPad Prism v7.04 was used for curve fitting and Student’s t test was used for statistical analysis.

N[C@@H](Cc1ccc(O)cc1)C(=O)O [tyrosine, 4-monohydroxyphenylalanine]
no inhibitory effect: inhibitory effect on motility of A. nosocomialis in vivo [1] | inhibitory effect on motility of M. xanthus in vivo (M. xanthus S motility) | inhibitory effect on CtPilB in vitro (CtPilB)

N[C@@H](Cc1ccccc1)C(=O)O [phenylalanine]
no inhibitory effect: inhibitory effect on motility of A. nosocomialis in vivo [1] | inhibitory effect on motility of M. xanthus in vivo (M. xanthus S motility) | inhibitory effect on CtPilB in vitro (CtPilB)
